Experimental findings from US20060205641A1, “[…]4 polypeptides and […]4 polynucleotides” (SmithKline Beecham plc, priority 1999, published 2006) are described below.

What all share (assay type): cell-based
In assay [1] the test system is HEK293 cells transfected with empty vector. As to the kind of experiment: FLIPR intracellular calcium assay, HEK293 cells transfected with empty vector. To be noted: result in words. In general terms: Calcium flux is commonly read through the fluorescence of an indicator in the cells.
Another assay addresses T1, hVR1 (Homo sapiens, UniProt Q8NER1).
T1 construct: expressed in transfected cells; host or cells: HEK293 (transient expression)
To be noted: for pEC50 hVR1: HEK293 cells transiently expressing hVR1, Fluo-3 calcium, FLIPR, mean ± s.e.mean, n = 3-5, IA = inactive; for activity at VR1: result in words.

The test system of the next assay is wild type HEK293 cells. As to the kind of experiment: FLIPR intracellular calcium assay, wild type HEK293 cells. As to conditions: result in words.
The next assay has as its target T2, hVR4 (Homo sapiens, UniProt Q9HBA0).
T2 construct: expressed in transfected cells; host or cells: HEK293 (transient expression)
The assay is described as follows: FLIPR intracellular calcium assay, HEK293 cells transiently expressing hVR4 ([…]4). As to conditions: for pEC50 hVR4: HEK293 cells transiently expressing hVR4, Fluo-3 calcium, FLIPR, mean ± s.e.mean, n = 3-5, IA = inactive; for effect on intracellular calcium in HEK293-hVR4 cells: result in words. The protocol:
HEK293 cells transiently expressing hVR1 or hVR4 were seeded into FLIPR96 plates at 25,000 cells/well and cultured overnight. The cells were then loaded in medium containing 4 microM Fluo-3 for 2 hrs, at room temperature, in the dark. The cell plates were then washed 4× with Tyrode containing 1.5 mM calcium and 0.2% BSA. Agonist and antagonist plates were prepared in the same buffer. Cells were preincubated with either antagonist or buffer at room temperature for 30 mins. Agonists additions and calcium measurements were made in the FLIPR (Smart et al., (2000) Br J. Pharmacol. 129, 227-230).

T1 sequence (Q8NER1 whole entry): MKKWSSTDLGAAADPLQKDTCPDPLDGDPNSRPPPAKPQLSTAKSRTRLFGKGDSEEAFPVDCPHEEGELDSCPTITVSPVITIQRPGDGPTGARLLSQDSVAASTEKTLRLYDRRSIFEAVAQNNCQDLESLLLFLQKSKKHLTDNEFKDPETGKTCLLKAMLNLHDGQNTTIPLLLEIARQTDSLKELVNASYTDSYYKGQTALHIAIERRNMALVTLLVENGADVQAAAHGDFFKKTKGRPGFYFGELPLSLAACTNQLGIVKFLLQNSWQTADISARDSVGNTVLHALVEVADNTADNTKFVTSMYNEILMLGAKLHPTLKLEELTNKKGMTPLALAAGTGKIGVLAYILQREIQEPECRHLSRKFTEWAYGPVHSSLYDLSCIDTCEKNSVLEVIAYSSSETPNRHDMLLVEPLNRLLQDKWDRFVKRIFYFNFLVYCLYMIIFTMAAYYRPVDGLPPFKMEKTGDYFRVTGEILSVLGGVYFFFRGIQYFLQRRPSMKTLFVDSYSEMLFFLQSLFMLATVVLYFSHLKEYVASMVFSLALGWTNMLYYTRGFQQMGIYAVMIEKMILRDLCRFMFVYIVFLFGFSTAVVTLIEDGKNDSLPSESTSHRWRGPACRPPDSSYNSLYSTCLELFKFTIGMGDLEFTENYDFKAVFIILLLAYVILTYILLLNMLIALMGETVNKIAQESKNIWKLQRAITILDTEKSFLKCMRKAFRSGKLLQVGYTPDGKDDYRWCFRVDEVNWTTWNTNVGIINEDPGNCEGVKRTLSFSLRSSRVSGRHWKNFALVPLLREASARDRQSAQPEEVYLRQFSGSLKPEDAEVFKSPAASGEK
T2 sequence (Q9HBA0 whole entry): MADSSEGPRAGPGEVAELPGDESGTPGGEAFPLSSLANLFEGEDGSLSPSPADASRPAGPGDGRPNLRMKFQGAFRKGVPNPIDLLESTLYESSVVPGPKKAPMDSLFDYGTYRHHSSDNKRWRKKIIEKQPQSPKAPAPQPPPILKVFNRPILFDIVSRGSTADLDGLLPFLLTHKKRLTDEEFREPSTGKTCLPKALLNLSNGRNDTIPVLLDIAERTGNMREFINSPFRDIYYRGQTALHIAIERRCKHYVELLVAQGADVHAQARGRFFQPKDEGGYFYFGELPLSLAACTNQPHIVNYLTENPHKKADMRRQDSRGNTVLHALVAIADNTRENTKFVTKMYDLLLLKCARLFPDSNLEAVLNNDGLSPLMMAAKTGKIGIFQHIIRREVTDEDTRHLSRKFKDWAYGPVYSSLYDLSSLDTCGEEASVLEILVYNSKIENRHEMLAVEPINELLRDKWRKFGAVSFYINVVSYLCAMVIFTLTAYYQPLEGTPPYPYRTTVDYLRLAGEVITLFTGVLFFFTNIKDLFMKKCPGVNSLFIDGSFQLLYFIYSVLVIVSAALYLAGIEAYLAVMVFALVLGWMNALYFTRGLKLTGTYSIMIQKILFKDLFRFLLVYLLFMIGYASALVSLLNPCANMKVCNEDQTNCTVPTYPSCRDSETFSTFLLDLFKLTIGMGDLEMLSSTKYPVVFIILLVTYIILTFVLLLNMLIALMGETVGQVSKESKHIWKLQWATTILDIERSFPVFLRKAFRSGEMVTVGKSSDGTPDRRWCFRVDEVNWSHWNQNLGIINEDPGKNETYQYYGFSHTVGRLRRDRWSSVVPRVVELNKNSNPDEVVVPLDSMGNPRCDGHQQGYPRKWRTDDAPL

On to `CCCCCCCCCCCCCC(=O)O[C@@H]1[C@@H](C)[C@@]2(O)[C@@H](C=C(CO)C[C@]3(O)C(=O)C(C)=C[C@@H]23)[C@@H]2C(C)(C)[C@]12OC(C)=O` [PMA, phorbol 12-myristate 13-acetate], for which the “effect on intracellular calcium in cells transfected with empty vector” value in assay [1] is on record as “without effect”. Moreover, at hVR1, the “pEC50 hVR1” value is reported as 7.86 ± 0.06 and the “activity at VR1” value is given as “partial agonist”. Further, the Emax at hVR1 (at VR1, compared to capsaicin and RTX) stood at 0.46. The “effect on intracellular calcium in wild type HEK293 cells” value in the assay with wild type HEK293 cells is reported as “without effect”. In addition, on hVR4, the “pEC50 hVR4” value is recorded as 6.64 ± 0.06 and the “effect on intracellular calcium in HEK293-hVR4 cells” value is “increased intracellular calcium”.

Consider `CCCCCCCCCC(=O)O[C@@H]1[C@@H](C)[C@@]2(O)[C@@H](C=C(CO)C[C@@]3(O)C(=O)C(C)=C[C@@H]23)[C@@H]2C(C)(C)[C@]12OC(=O)CCCCCCCCC` [4αPDD, 4α-phorbol-12,13-didecanoate], for which, in assay [1], the “effect on intracellular calcium in cells transfected with empty vector” value is reported as “without effect”. The “activity at VR1” value on hVR1 was “inactive”. In addition, the “effect on intracellular calcium in wild type HEK293 cells” value in the assay with wild type HEK293 cells was “without effect”. Moreover, on hVR4, the “pEC50 hVR4” value worked out at 5.73 ± 0.06 and the “effect on intracellular calcium in HEK293-hVR4 cells” value is listed as “increased intracellular calcium”. For the same compound, the “selectivity (conclusion)” value on hVR4 (VR4 versus VR1, result in words) is recorded as “In conclusion, 4αPDD acts as a VR4 selective agonist”.

Consider `C=C(C)[C@]12C[C@@H](C)[C@@]34O[C@](Cc5ccccc5)(O[C@@H]1[C@@H]3C=C(COC(=O)Cc1ccc(O)c(OC)c1)C[C@]1(O)C(=O)C(C)=C[C@@H]41)O2` [RTX], for which the “pEC50 hVR1” value at hVR1 came out at 8.93 ± 0.20.
